Columns and labels:
[1] = test system: normal tissues (colon, skin, liver, intestines, lungs, kidneys); assay: IHC and histopathology of normal tissues of KPC mice; format: in vivo, mouse
Method: Tumor formation in KPC mice was monitored by bi-weekly palpation. […] Treatments were performed every other day via oral gavage for 1 week. […] Following two consecutive ultrasounds, RMC-7977-treated animals were sacrificed either 4 (n=7) or 24 hours (n=4) after last dose and Vehicle-treated animals were sacrificed between 4-24 hours post last dose. Tissue was harvested and preserved as previously described (See Xenograft studies section). Additional group of KPC mice was also treated with a single dose of RMC-7977 (n=10) or Vehicle (n=3) and tissues were harvested at 4 or 24 hours post dose as previously described. All tissues were fixed for up to 24 hours using 10% neutral buffered formalin and then moved to 70% ethanol for long term storage. All stainings were performed on 4-μm tissue sections. Sections were deparaffinized using a Leica XL ST5010 autostainer, after which slides were subjected to heat-activated epitope retrieval. […] Slides were further blocked in serum for 1 hour, and primary antibodies were added for overnight incubation at 4° C. […] Following incubation, ImmPACT DAB peroxidase (Vector Laboratories, SK-4100) was used to develop the stain and hematoxylin was used as nuclear counterstain. Stained slides were imaged at 40× magnification. Quantitative analyses of IHC images were performed using ImageJ.

pERK in KPF/FC tumors = assay: PK/PD in KPF/FC tumors (pERK IHC); format: in vivo; settings: Mus musculus, read-out: EC50, pERK inhibition vs RMC-7977 concentration in tumors
Method: (§1) Tumor formation in KPF/FC (KrasLSL.G12D/+; p53flox/flox; Pdx1-Cre) mice was monitored by bi-weekly palpations until the detection of a mass, which was then confirmed by ultrasound. Tumor-bearing mice were randomized and assigned into groups (n=3/dose/timepoint). Single dose of RMC-7977 was administered orally at 10 mg/kg, 25 mg/kg and 50 mg/kg. The same vehicle formulation was used for the control group. Whole blood and tissue (tumors and colons) were harvested at indicated time points preserved as previously described (See Xenograft studies section).
Whole blood, tumor, colon and skin tissue concentrations of RMC-7977 were determined using liquid chromatography-tandem mass spectrometry (LC-MS/MS) methods. Tissue samples were homogenized with a 5× or 10× volume of homogenization buffer (methanol/15 mM PBS (1:2; v:v) or 15 mM PBS with 10% methanol). […] After thorough mixing and centrifugation, the supernatant was directly analyzed on a Sciex 6500+ triple quadrupole mass spectrometer equipped with an ACQUITY or Shimadzu UPLC system. […] RMC-7977 and IS (verapamil or terfenadine) were detected by positive electrospray ionization using multiple reaction monitoring (RMC-7977: m/z 865.4/706.4 or m/z 865.3/833.5; verapamil: m/z 455.2/164.9; terfenadine: m/z 472.3/436.4). The lower limit of quantification was 0.5 ng/mL or 2.0 ng/mL for blood, tumor, and other tissue. […]

wild type RAS = settings: reference 14; cited from earlier work
pERK in colon = assay: pERK IHC in colon tissues of KPF/FC mice; format: in vivo, mouse; settings: KPF/FC cohort; 10 and 25 mg/kg dose levels
Method: as §1
All tissues were fixed for up to 24 hours using 10% neutral buffered formalin and then moved to 70% ethanol for long term storage. All stainings were performed on 4-μm tissue sections. Sections were deparaffinized using a Leica XL ST5010 autostainer, after which slides were subjected to heat-activated epitope retrieval. To block endogenous peroxidases, 20 min incubation in 3% H2O2 (Fisher Scientific) was performed. Slides were further blocked in serum for 1 hour, and primary antibodies were added for overnight incubation at 4° C. The next day, slides were washed and incubated with ImmPRESS HRP Horse Anti-Rabbit IgG Polymer Detection Kit (Vector Laboratories, MP-7401) for 30 min. […] Quantitative analyses of IHC images were performed using ImageJ.

[2] = test system: CC3+ apoptotic cells, Cyclin A2; assay: CC3 and Cyclin A2 IHC in KPF/FC mice (tumor, colon); format: in vivo, mouse
Method: as §1
All tissues were fixed for up to 24 hours using 10% neutral buffered formalin and then moved to 70% ethanol for long term storage. All stainings were performed on 4-μm tissue sections. Sections were deparaffinized using a Leica XL ST5010 autostainer, after which slides were subjected to heat-activated epitope retrieval. To block endogenous peroxidases, 20 min incubation in 3% H2O2 (Fisher Scientific) was performed. Slides were further blocked in serum for 1 hour, and primary antibodies were added for overnight incubation at 4° C. The next day, slides were washed and incubated with ImmPRESS HRP Horse Anti-Rabbit IgG Polymer Detection Kit (Vector Laboratories, MP-7401) for 30 min. Following incubation, ImmPACT DAB peroxidase (Vector Laboratories, SK-4100) was used to develop the stain and hematoxylin was used as nuclear counterstain. Stained slides were imaged at 40× magnification. Quantitative analyses of IHC images were performed using ImageJ.

human PDAC explants = assay: Ex vivo human PDAC explants, IHC for pERK and CC3; format: cell-based
Method: Explant culture sponges and optimized culture media were prepared as previously described in Hasselluhn and Decker-Farrell et al.^54. Human tissue samples were obtained from de-identified patients undergoing resection surgeries, primarily pancreaticoduodenectomy (Whipple) or distal pancreatectomy, at New York-Presbyterian/Columbia University Irving Medical Center. Upon receipt of a resected human PDAC fragment (n=4), each tissue sample was cut into […] slices using a Compresstome. Any tumor tissue remaining after sectioning was fixed in 4% paraformaldehyde (Santa Cruz Biotechnology, sc-281692) for 2 hours, at 4° C. as the Day 0 control. […] Each well of a 24 well plate contained one explant slice placed between bottom sponge (1 cm^3) and a top sponge (2-3 mm thick). After 24 hours culture, explants were collected and fixed in 4% PFA for 2 hours. Fixed tissue was then transferred to 70% ethanol and paraffin embedded for long-term storage and further analysis. All tissues were fixed for up to 24 hours using 10% neutral buffered formalin and then moved to 70% ethanol for long term storage. All stainings were performed on 4-μm tissue sections. Sections were deparaffinized using a Leica XL ST5010 autostainer, after which slides were subjected to heat-activated epitope retrieval. […] Slides were further blocked in serum for 1 hour, and primary antibodies were added for overnight incubation at 4° C. […] Following incubation, ImmPACT DAB peroxidase (Vector Laboratories, SK-4100) was used to develop the stain and hematoxylin was used as nuclear counterstain. Stained slides were imaged at 40× magnification. Quantitative analyses of IHC images were performed using ImageJ.

[3] = explants treated for 24 hours, 10-100 nM

SMILES: CCn1c(-c2cc(N3CCN(C4CC4)CC3)cnc2[C@H](C)OC)c2c3cc(ccc31)-c1csc(n1)C[C@H](NC(=O)[C@H]1[C@@H]3COC[C@@H]31)C(=O)N1CCC[C@H](N1)C(=O)OCC(C)(C)C2 [RMC-7977]
- effects on apoptosis (CC3) and proliferation (Cyclin A2) in colon and skin ([1]; SD, 1 Wk and EP KPC mice, all timepoints): absent or negligible
- treatment-associated histopathological feature ([1]; proximal intestines of half the treated animals, no diarrhea or weight loss): modest increase in apoptosis
- EC50 (pERK in KPF/FC tumors): 321 nM
- affinity for wild type RAS compared to mutant variants (wild type RAS): somewhat reduced affinity
- RAS/MAPK activity (pERK) in colon tissues (pERK in colon): rapidly restored to baseline
- time to full restoration of Cyclin A2 levels in normal colon ([2]; KPF/FC mice): ≤ 24 h
- proliferation (Cyclin A2) in normal colon ([2]; KPF/FC mice, at 12 hours): transient decrease
- spike in CC3+ apoptotic cells in tumors ([2]; KPF/FC tumors, four hours after a single dose): ~4 fold
- apoptosis in normal tissues ([2]; all doses and time points): negligible or absent
- apoptosis marker cleaved caspase 3 (CC3) (IHC) (human PDAC explants; [3]): increase
- pERK expression (IHC) (human PDAC explants; [3]): concentration-dependent decrease
- concentration of maximal changes in pERK and CC3 (human PDAC explants; highest concentration tested): 100 nM
- response of the KRASWT explant model (human PDAC explants; one of the four explant models, KRASWT): sensitive
